# Values of other authors as cited in patent US6362007B1, “Methylated, SMD homologous peptides, reactive with the antibodies from sera of living beings affected with systemic lupus erythematosus” (Innogenetics N.V., priority 1997, dated 2002).
# Tested on: antibodies in SmD positive sera
# Settings: James et al. 1994; synthetic octapeptides of SmD1
row,Substance,SmD positive sera (precipitin positive) reactive
1,"amino acid 82-90: additional SmD1 epitope in the region of amino acid 82-90 (James et al. 1994) (DVEPKVKSK; UniProt P62314 82-90, looked up, fragment)",7 of 9
2,"octapeptides 92-112: SmD1 sequence spanning synthetic octapeptides 92-112 (James et al. 1994) (REAVAGRGRGRGRGRGRGRGR; UniProt P62314 92-112, looked up, fragment)",8 of 9
